For one data set, the system named is mammals. Conditions: cited from earlier work; for neuronal toxicity: several months after the treatment.
In the next data set the test system is male Sprague-Dawley rats. Kind of data set: Near infrared fluorescence (NIRF) imaging of lymph nodes after penile intracavernous ICG injection. Type of data set: in vivo, rat. Here is the method:
Twenty two 22 male Sprague-Dawley rats received penile intracavernous ICG injections (20 μl of 0.25 mg/ml). […] A Novadaq intraoperative NIRF imaging system (SPY®) was used for macroscopic fluorescence imaging and an Olympus NIRF microscope IX 70 (Olympus America, Inc., Center Valley, Pa.) was used for histology. All animals were anesthetized and shaved before imaging. All visualized nodes were sent for NIR microscopy and haematoxylin and eosin (H&E) staining for histological examination.
More than one pair of sentinel lymph nodes were visualized in 2 rats. […] Lymphatic channels were seen leading to sentinel lymph nodes at 6, 12 and 24 hours (FIG. 1). […] (FIG. 1). […] Thus, NIR fluorescence using ICG facilitates both pre- and intraoperative identification of the first site of penile lymphatic drainage. The methods of the invention should therefore improve the accuracy of surgical staging in patients with penile carcinomas.

For data set [1] the following is noted: cited from earlier work.
The conditions of data set [2]: 806 nm excitation light; cited from earlier work.

“Also recorded” adds a separate entry of the source.

Consider `N=C(N)c1ccc(/C=C/c2ccc(C(=N)N)cc2O)cc1` [Fluorogold], for which, in the data set with mammals, the toxicity in mammals result was “low evidence of toxicity” and the neuronal toxicity entry is recorded as “without evidence of neuronal toxicity”.

Take `CC1(C)C(/C=C/C=C/C=C/C=C2\N(CCCCS(=O)(=O)O)c3ccc4ccccc4c3C2(C)C)=[N+](CCCCS(=O)(=O)[O-])c2ccc3ccccc3c21` [ICG, indocyanine green]: in the data set with male Sprague-Dawley rats (6, 12 and 24 hours post-injection), the “lymphatic channels leading to sentinel lymph nodes” value was “seen”. For the same compound, the “how long lymph nodes could be seen through the body wall after injection” value with male Sprague-Dawley rats (animal studies) is reported as “for days”. Moreover, in the data set on male Sprague-Dawley rats (rats), the “confirmation of lymph nodes by NIR microscopy and conventional histology” value is given as “All lymph nodes were confirmed”; the “visualization of inguinal and iliac sentinel lymph nodes with NIRF” value is on record as “clearly visualized”. The “intraoperative confirmation of preoperative localization of inguinal nodes” value in the data set on male Sprague-Dawley rats (rats, intraoperative NIRF) is “confirmed the preoperative localization of the inguinal nodes; also recorded: confirmed preoperative localization of all inguinal nodes”. Moreover, in data set [1] (in vivo), the enterohepatic recirculation result is “does not undergo enterohepatic recirculation”, the “metabolism in the body” value was “not metabolized”, the “reabsorption from the intestine” value is listed as “not reabsorbed” and the route of excretion entry is “excreted exclusively by the liver”. The “distribution after intravenous injection” value in data set [1] (normal vascular permeability) was “remains intravascular”. Further, in the data set with mammals, the toxicity in mammals entry is listed as “low evidence of toxicity” and the neuronal toxicity entry is given as “without evidence of neuronal toxicity”. Besides, in data set [2], the emitted light wavelength is 830 nm.

Fast Blue: in the data set with mammals, the toxicity in mammals entry is recorded as “low evidence of toxicity” and the neuronal toxicity entry was “without evidence of neuronal toxicity”.

On to `CC1(C)C(/C=C/C=C/C=C/C=C2\N(CCCCS(=O)(=O)[O-])c3ccc4ccccc4c3C2(C)C)=[N+](CCCCS(=O)(=O)[O-])c2ccc3ccccc3c21.[Na+]` [indocyanine green (ICG)], for which, in the data set on male Sprague-Dawley rats (animal model), the “shortest time after injection to ability to visualize the lymph nodes” value amounted to 10 min.

The record behind these values is US10434190B2, “Pre-and-intra-operative localization of penile sentinel nodes” (NOVADAQ TECHNOLOGIES ULC, priority 2006, dated 2019).
